Measured values: patent US20190169691A1, “HERITABLE EPIGENETIC MODIFICATIONS AS MARKERS OF CHEMOTHERAPY EXPOSURE” (Washington State University, priority 2016, published 2019)
Where “and” joins values, the source holds several entries; their conditions need not be identical. Equal values may be shown once.

Tested on: sperm
Experiment: Semen analysis: sperm number and seminal fluid parameters (CASA) after adolescent chemotherapy
Assay type: in vivo, human
Conditions: individual adult male osteosarcoma survivors, semen collected approximately ten years after chemotherapy at 14-20 years of age
Text: The patients were 19-30 year-old male survivors of osteosarcoma recruited from the Seattle Children's Hospital in Seattle Wash. and four collaborating institutions (Children's Hospital of Pennsylvania, Philadelphia, Pa.; Miller Children's, Long Beach, Calif.; Children's Hospital, University of Minnesota, Minneapolis, Minn.; and Children's Hospital, Vanderbilt University, Nashville, Tenn.). These men had been treated for their disease with cisplatin-based chemotherapy regimens, including ifosfamide in some cases, when they were 14-20 years of age. Each patient was recruited by in-clinic or mail recruitment protocols. […]
Each patient and control was asked to provide a semen sample via home seminal fluid collection, which we used to allow for ease of subject participation since the sample can be obtained without the individual traveling to a laboratory. […] For sperm concentration (per ml), each participant's semen was diluted and assessed by CASA (Computer Assisted Sperm Analysis). […] Although sperm motility was not assessed (because it requires a fresh sample), count and morphology data nonetheless provide a great deal of information regarding spermatogenesis and abnormalities and both are associated with an increased risk of infertility. […]

SMILES: N.N.[Cl][Pt][Cl] [Cisplatin, cisplatin]
- Sperm # (Total Millions): 100.2 Total Millions and 170.5 Total Millions and 178 Total Millions and 7.34 Total Millions and 21 Total Millions and 49 Total Millions and 55 Total Millions
